Assay results: US10821160B2, “L-asparaginase variants and fusion proteins with reduced L-glutaminase activity and enhanced stability” (priority 2016, dated 2020)
Where “and” joins values, the source holds several entries; their conditions need not be identical. Equal values may be shown once.

Assays:
[1] = biological target: T1, Erwinia chrysanthemi L-asparaginase, wild type (ErA-WT), SEQ ID NO:1 (Dickeya chrysanthemi, UniProt P06608); assay: L-asparaginase activity, continuous spectroscopic enzyme-coupled assay; format: biochemical; conditions: 37° C
T1 construct: lacking the first 21-amino acid residue signal peptide; His6-SUMO (yeast Smt3p) (N, cleaved yes); made in house; host or cells: E. coli BL21(DE3) C41
Method: In brief, the assay measures the production of L-aspartate through the 1:1 oxidation of reduced NADH. The conversion of NADH to NAD^+ was measured spectrophotometrically as a decrease in absorbance at 340 nm at 37° C. All measurements were taken in triplicate. Rates were fit to the Michaelis-Menten equation using SIGMAPLOT software (Systat Software Inc).
(§1) The parameters that define the asparagine-depleting power of such enzyme drugs are of significance. […] Enzymologists often combine these two parameters into a single value (kcat/Km) that is thought to represent the efficiency of the enzyme.
(§2) Using colorimetric enzyme-coupled assays, L-asparaginase and L-glutaminase activity of the enzymes was determined.

[2] = biological target: Erwinia chrysanthemi L-asparaginase (ErA) variant E63Q (ErA-E63Q), SEQ ID NO:2 (Dickeya chrysanthemi, UniProt P06608, E84Q); conditions: 37° C
Method: (§3) L-asparaginase activity was determined using a continuous spectroscopic enzyme-coupled assay as previously described (Schalk, et al. (2014) J. Biol. Chem. 289:33175-33186). In brief, the assay measures the production of L-aspartate through the 1:1 oxidation of reduced NADH. The conversion of NADH to NAD^+ was measured spectrophotometrically as a decrease in absorbance at 340 nm at 37° C. All measurements were taken in triplicate. Rates were fit to the Michaelis-Menten equation using SIGMAPLOT software (Systat Software Inc).
as §1, §2

[3] = biological target: T2, Erwinia chrysanthemi L-asparaginase (ErA) variant E63Q-S254N (ErA-DM1), SEQ ID NO:3 (Dickeya chrysanthemi, UniProt P06608, E84Q/S275N); format: biochemical
T2 construct: lacking the first 21-amino acid residue signal peptide; His6-SUMO (yeast Smt3p) (N, cleaved yes); made in house; host or cells: E. coli BL21(DE3) C41

[4] = biological target: T3, Erwinia chrysanthemi L-asparaginase (ErA) variant E63Q-S254Q (ErA-DM3), SEQ ID NO:5 (Dickeya chrysanthemi, UniProt P06608, E84Q/S275Q); format: biochemical; conditions: 37° C
T3 construct: lacking the first 21-amino acid residue signal peptide; His6-SUMO (yeast Smt3p) (N, cleaved yes); made in house; host or cells: E. coli BL21(DE3) C41
Method: as §3, §1, §2

[5] = biological target: T4, Erwinia chrysanthemi L-asparaginase (ErA) variant A31I-E63Q-S254N (ErA-TM1), SEQ ID NO:7 (Dickeya chrysanthemi, UniProt P06608, A52I/E84Q/S275N); format: biochemical; conditions: 37° C
T4 construct: lacking the first 21-amino acid residue signal peptide; His6-SUMO (yeast Smt3p) (N, cleaved yes); made in house; host or cells: E. coli BL21(DE3) C41

[6] = biological target: T5, Erwinia chrysanthemi L-asparaginase (ErA) variant A31I-E63Q (ErA-DM2), SEQ ID NO:4 (Dickeya chrysanthemi, UniProt P06608, A52I/E84Q); format: biochemical; conditions: 37° C
T5 construct: lacking the first 21-amino acid residue signal peptide; His6-SUMO (yeast Smt3p) (N, cleaved yes); made in house; host or cells: E. coli BL21(DE3) C41
Method: as §3
(§4) Using colorimetric enzyme-coupled assays, L-asparaginase and L-glutaminase activity of the enzymes was determined. […] Seventeen of the 18 mutants had reduced L-glutaminase activity (Table 7). However, for most of the mutants, this decrease was concomitant with a decline in the L-asparaginase activity. Using the criteria of (i) ≥60% retained L-asparaginase activity (relative to Erw-WT) and (ii) ≤5% L-glutaminase versus and L-asparaginase activity, mutants ErA-E63Q, ErA-S254P, ErA-A31I+E63Q and ErA-S254N+E63Q were selected for further study.

[7] = biological target: T6, Erwinia chrysanthemi L-asparaginase (ErA) variant S254P (ErA-S254P) (Dickeya chrysanthemi, UniProt P06608, S275P); format: biochemical; conditions: 37° C
T6 construct: lacking the first 21-amino acid residue signal peptide; His6-SUMO (yeast Smt3p) (N, cleaved yes); made in house; host or cells: E. coli BL21(DE3) C41
Method: as §3, §4

[8] = biological target: T7, Escherichia coli L-asparaginase, wild type (EcA-WT), SEQ ID NO:9 (Escherichia coli, UniProt P00805); assay: L-asparaginase activity, continuous spectroscopic enzyme-coupled assay; format: biochemical; conditions: 37° C
T7 sequence (P00805 with tags, fused parts or gaps): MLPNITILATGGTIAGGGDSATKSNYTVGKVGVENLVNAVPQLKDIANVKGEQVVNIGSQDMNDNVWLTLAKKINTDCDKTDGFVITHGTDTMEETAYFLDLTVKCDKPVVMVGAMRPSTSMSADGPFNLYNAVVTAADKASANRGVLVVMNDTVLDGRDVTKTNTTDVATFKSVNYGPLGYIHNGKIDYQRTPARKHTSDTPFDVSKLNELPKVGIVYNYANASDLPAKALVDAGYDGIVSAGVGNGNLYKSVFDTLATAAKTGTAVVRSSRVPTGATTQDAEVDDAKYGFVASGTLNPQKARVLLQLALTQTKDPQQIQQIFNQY
Method: as §3
The parameters that define the asparagine-depleting power of such enzyme drugs are of significance. […] Enzymologists often combine these two parameters into a single value (kcat/Km) that is thought to represent the efficiency of the enzyme. […] Therefore, the ErA enzyme was selected for developing a variant with low L-glutaminase activity.

[9] = biological target: T8, 10K PEGylated Erwinia chrysanthemi L-asparaginase (ErA) variant A31I-E63Q-S254Q-D84C (10K PEGylated-ErA-TM2-D84C) (Dickeya chrysanthemi, UniProt P06608, A52I/D105C/E84Q/S275Q); assay: L-asparaginase activity, comparison with ErA-TM2; format: biochemical
T8 construct: lacking the first 21-amino acid residue signal peptide; made in house
Method: as §3
(§5) The resulting […] protein was expressed, purified and PEGylated with mPEG-10K.

[10] = biological target: T9, Erwinia chrysanthemi L-asparaginase (ErA) variant A31I-E63Q-S254Q-D84C (ErA-TM2-D84C) (Dickeya chrysanthemi, UniProt P06608, A52I/D105C/E84Q/S275Q); assay: L-asparaginase activity, comparison with ErA-TM2; format: biochemical
T9 construct: lacking the first 21-amino acid residue signal peptide; made in house
Method: as §3, §5

[11] = system: Erwinia chrysanthemi L-asparaginase (ErA) variants ErA-E63Q, ErA-DM2 (A31I-E63Q) and ErA-DM1 (E63Q-S254N); assay: L-asparaginase activity of the mutants as a group vs ErA-WT; format: biochemical; conditions: Asn
Method: as §3, §4

[12] = biological target: Erwinia chrysanthemi L-asparaginase (ErA) variant A31I-E63Q-S254Q (ErA-TM2), SEQ ID NO:6 (Dickeya chrysanthemi, UniProt P06608, A52I/E84Q/S275Q); format: biochemical; parameters: lacking the first 21-amino acid residue signal peptide; His6-SUMO (yeast Smt3p) (N, cleaved yes); made in house; host or cells: E. coli BL21(DE3) C41
Method: as §3, §2

NC(=O)C[C@H](N)C(=O)O [Asn, L-asparagine]
kobs @20 μM ([1]; 20 μM Asn): 50.7 s⁻¹
kobs @50 μM ([1]; 50 μM Asn): 105.3 s⁻¹
kobs @20 μM ([2]; 20 μM Asn): 46.3 s⁻¹
kobs @50 μM ([2]; 50 μM Asn): 92.2 s⁻¹
Km ([2]; Asn): 48.1 µM and 50.7 µM
kobs @20 μM ([3]; 20 μM Asn, 37° C): 18.9 s⁻¹
kobs @50 μM ([3]; 50 μM Asn, 37° C): 36.3 s⁻¹
kcat ([3]; Asn, 37° C): 169.8 ± 1.5 s⁻¹
increase in Asn Km ([3]; Asn, relative to ErA-WT): 4 fold
kobs @20 μM ([4]; 20 μM Asn): 14.2 s⁻¹
kobs @50 μM ([4]; 50 μM Asn): 36.3 s⁻¹ and 30.8 s⁻¹
Km ([4]; Asn): 179 ± 5.6 µM
kcat ([4]; Asn): 147.3 ± 1.0 s⁻¹
kobs @20 μM ([5]; 20 μM Asn): 16.4 s⁻¹
kobs @50 μM ([5]; 50 μM Asn): 29.2 s⁻¹
kcat ([5]; Asn): 109.7 ± 0.8 s⁻¹
kobs @20 μM ([6]; 20 μM Asn): 38.8 s⁻¹
kobs @50 μM ([6]; 50 μM Asn): 69.7 s⁻¹
Km ([6]; Asn): 36.9 ± 2.2 µM
kcat ([6]; Asn): 123.0 ± 1.8 s⁻¹
kobs @20 μM ([7]; 20 μM Asn): 4.5 s⁻¹
kobs @50 μM ([7]; 50 μM Asn): 10.5 s⁻¹
Km ([7]; Asn): 1150 ± 25.5 µM
kcat ([7]; Asn): 250.0 ± 2.8 s⁻¹
kobs @20 μM ([8]; 20 μM Asn): 28.3 s⁻¹
kobs @50 μM ([8]; 50 μM Asn): 41.3 s⁻¹
kobs at 2 mM Asn [9]: 163.4 s⁻¹
kobs at 2 mM Asn [10]: 172.8 s⁻¹
near wild-type kcat (range, of ErA-WT) [11]: 60-90%
kobs @20 μM ([12]; 20 μM Asn, 37° C): 40.8 s⁻¹
kobs @50 μM ([12]; 50 μM Asn, 37° C): 89.1 s⁻¹
kobs at 2 mM Asn ([12]; 2 mM Asn): 178.8 s⁻¹
Km ([12]; Asn, 37° C): 95 ± 3.5 µM
kcat ([12]; Asn, 37° C): 261.2 ± 2.8 s⁻¹
